Assay results reported in patent publication US20070036839A1, “Phosphorylated glucomannane polysaccharides containing 1-6 and 1-2 linkages increase weight gain in poultry” (priority 2005, published 2007).

Assay: Weekly hematology (CBC with differential); as to Red Blood Cells HCT: test concentration or dose not given here; as to White Blood Cells BASO: test concentration or dose not given here; as to White Blood Cells EOS: test concentration or dose not given here; as to White Blood Cells LYMP + MONO: test concentration or dose not given here; as to White Blood Cells NEUT: test concentration or dose not given here; as to White Blood Cells WBC: test concentration or dose not given here
Assay type: in vivo, Male Ross x Ross broiler chickens

- Others Het/Poly (Day 3, dose group 1): 14.67%
- Red Blood Cells HCT (Day 3, dose group 1): 30.60%
- White Blood Cells BASO (Day 3, dose group 1): 193.33 X/uL
- White Blood Cells EOS (Day 3, dose group 1): 0.00 X/uL
- White Blood Cells LYMP + MONO (Day 3, dose group 1): 2956.67 X/uL
- White Blood Cells NEUT (Day 3, dose group 1): 516.67 X/uL
- White Blood Cells WBC (Day 3, dose group 1): 3670 µL⁻¹
- Others Het/Poly (Day 3, dose group 3): 20.33%
- Red Blood Cells HCT (Day 3, dose group 3): 28.67%
- White Blood Cells BASO (Day 3, dose group 3): 78.33 X/uL
- White Blood Cells EOS (Day 3, dose group 3): 6.67 X/uL
- White Blood Cells LYMP + MONO (Day 3, dose group 3): 2595.00 X/uL
- White Blood Cells NEUT (Day 3, dose group 3): 820.00 X/uL
- White Blood Cells WBC (Day 3, dose group 3): 3500 µL⁻¹
- Others Het/Poly (Day 3, dose group 20): 17.67%
- Red Blood Cells HCT (Day 3, dose group 20): 27.00%
- White Blood Cells BASO (Day 3, dose group 20): 48.33 X/uL
- White Blood Cells EOS (Day 3, dose group 20): 0.00 X/uL
- White Blood Cells LYMP + MONO (Day 3, dose group 20): 2828.33 X/uL
- White Blood Cells NEUT (Day 3, dose group 20): 623.33 X/uL
- White Blood Cells WBC (Day 3, dose group 20): 3500 µL⁻¹
- Others Het/Poly (Day 7, dose group 1): 21.00%
- White Blood Cells BASO (Day 7, dose group 1): 85.00 X/uL
- White Blood Cells EOS (Day 7, dose group 1): 0.00 X/uL
- White Blood Cells LYMP + MONO (Day 7, dose group 1): 4665.00 X/uL
- White Blood Cells NEUT (Day 7, dose group 1): 1250.00 X/uL
- White Blood Cells WBC (Day 7, dose group 1): 6000 µL⁻¹
- Others Het/Poly (Day 7, dose group 3): 21.33%
- White Blood Cells BASO (Day 7, dose group 3): 193.33 X/uL
- White Blood Cells EOS (Day 7, dose group 3): 0.00 X/uL
- White Blood Cells LYMP + MONO (Day 7, dose group 3): 4253.33 X/uL
- White Blood Cells NEUT (Day 7, dose group 3): 1220.00 X/uL
- White Blood Cells WBC (Day 7, dose group 3): 5670 µL⁻¹
- Others Het/Poly (Day 7, dose group 20): 25.67%
- White Blood Cells BASO (Day 7, dose group 20): 113.33 X/uL
- White Blood Cells EOS (Day 7, dose group 20): 0.00 X/uL
- White Blood Cells LYMP + MONO (Day 7, dose group 20): 4050.00 X/uL
- White Blood Cells NEUT (Day 7, dose group 20): 1503.33 X/uL
- White Blood Cells WBC (Day 7, dose group 20): 5670 µL⁻¹
- Others Het/Poly (Day 15, dose group 1): 41.33%
- Red Blood Cells HCT (Day 15, dose group 1): 27.33%
- White Blood Cells BASO (Day 15, dose group 1): 146.67 X/uL
- White Blood Cells EOS (Day 15, dose group 1): 0.00 X/uL
- White Blood Cells LYMP + MONO (Day 15, dose group 1): 4346.67 X/uL
- White Blood Cells NEUT (Day 15, dose group 1): 3506.67 X/uL
- White Blood Cells WBC (Day 15, dose group 1): 8000 µL⁻¹
- Others Het/Poly (Day 15, dose group 3): 39.00%
- Red Blood Cells HCT (Day 15, dose group 3): 31.00%
- White Blood Cells BASO (Day 15, dose group 3): 153.33 X/uL
- White Blood Cells EOS (Day 15, dose group 3): 0.00 X/uL
- White Blood Cells LYMP + MONO (Day 15, dose group 3): 4796.67 X/uL
- White Blood Cells NEUT (Day 15, dose group 3): 3383.33 X/uL
- White Blood Cells WBC (Day 15, dose group 3): 8330 µL⁻¹
- Others Het/Poly (Day 15, dose group 20): 45.33%
- Red Blood Cells HCT (Day 15, dose group 20): 22.00%
- White Blood Cells BASO (Day 15, dose group 20): 113.33 X/uL
- White Blood Cells EOS (Day 15, dose group 20): 0.00 X/uL
- White Blood Cells LYMP + MONO (Day 15, dose group 20): 3710.00 X/uL
- White Blood Cells NEUT (Day 15, dose group 20): 2843.33 X/uL
- White Blood Cells WBC (Day 15, dose group 20): 6670 µL⁻¹
- Others Het/Poly (Day 21, dose group 1): 29.00%
- Red Blood Cells HCT (Day 21, dose group 1): 30.00%
- White Blood Cells BASO (Day 21, dose group 1): 240.00 X/uL
- White Blood Cells EOS (Day 21, dose group 1): 0.00 X/uL
- White Blood Cells LYMP + MONO (Day 21, dose group 1): 5440.00 X/uL
- White Blood Cells NEUT (Day 21, dose group 1): 2320.00 X/uL
- White Blood Cells WBC (Day 21, dose group 1): 8000 µL⁻¹
- Others Het/Poly (Day 21, dose group 3): 26.00%
- Red Blood Cells HCT (Day 21, dose group 3): 30.33%
- White Blood Cells BASO (Day 21, dose group 3): 250.00 X/uL
- White Blood Cells EOS (Day 21, dose group 3): 0.00 X/uL
- White Blood Cells LYMP + MONO (Day 21, dose group 3): 6640.00 X/uL
- White Blood Cells NEUT (Day 21, dose group 3): 2443.33 X/uL
- White Blood Cells WBC (Day 21, dose group 3): 9330 µL⁻¹
- Others Het/Poly (Day 21, dose group 20): 32.67%
- Red Blood Cells HCT (Day 21, dose group 20): 31.00%
- White Blood Cells BASO (Day 21, dose group 20): 306.67 X/uL
- White Blood Cells EOS (Day 21, dose group 20): 0.00 X/uL
- White Blood Cells LYMP + MONO (Day 21, dose group 20): 6746.67 X/uL
- White Blood Cells NEUT (Day 21, dose group 20): 3280.00 X/uL
- White Blood Cells WBC (Day 21, dose group 20): 10330 µL⁻¹
- Others Het/Poly (Day 28, dose group 1): 42.00%
- Red Blood Cells HCT (Day 28, dose group 1): 29.33%
- White Blood Cells BASO (Day 28, dose group 1): 446.67 X/uL
- White Blood Cells EOS (Day 28, dose group 1): 0.00 X/uL
- White Blood Cells LYMP + MONO (Day 28, dose group 1): 4546.67 X/uL
- White Blood Cells NEUT (Day 28, dose group 1): 3673.33 X/uL
- White Blood Cells WBC (Day 28, dose group 1): 8670 µL⁻¹
- Others Het/Poly (Day 28, dose group 3): 44.67%
- Red Blood Cells HCT (Day 28, dose group 3): 30.00%
- White Blood Cells BASO (Day 28, dose group 3): 560.00 X/uL
- White Blood Cells EOS (Day 28, dose group 3): 0.00 X/uL
- White Blood Cells LYMP + MONO (Day 28, dose group 3): 3323.33 X/uL
- White Blood Cells NEUT (Day 28, dose group 3): 3450.00 X/uL
- White Blood Cells WBC (Day 28, dose group 3): 7330 µL⁻¹
- Others Het/Poly (Day 28, dose group 20): 45.00%
- Red Blood Cells HCT (Day 28, dose group 20): 33.67%
- White Blood Cells BASO (Day 28, dose group 20): 410.00 X/uL
- White Blood Cells EOS (Day 28, dose group 20): 0.00 X/uL
- White Blood Cells LYMP + MONO (Day 28, dose group 20): 4413.33 X/uL
- White Blood Cells NEUT (Day 28, dose group 20): 3843.33 X/uL
- White Blood Cells WBC (Day 28, dose group 20): 8670 µL⁻¹
- Others Het/Poly (Day 35, dose group 1): 31.33%
- Red Blood Cells HCT (Day 35, dose group 1): 29.67%
- White Blood Cells BASO (Day 35, dose group 1): 253.33 X/uL
- White Blood Cells EOS (Day 35, dose group 1): 0.00 X/uL
- White Blood Cells LYMP + MONO (Day 35, dose group 1): 5046.67 X/uL
- White Blood Cells NEUT (Day 35, dose group 1): 2700.00 X/uL
- White Blood Cells WBC (Day 35, dose group 1): 8000 µL⁻¹
- Others Het/Poly (Day 35, dose group 3): 39.67%
- Red Blood Cells HCT (Day 35, dose group 3): 31.67%
- White Blood Cells BASO (Day 35, dose group 3): 310.00 X/uL
- White Blood Cells EOS (Day 35, dose group 3): 0.00 X/uL
- White Blood Cells LYMP + MONO (Day 35, dose group 3): 4876.67 X/uL
- White Blood Cells NEUT (Day 35, dose group 3): 3146.67 X/uL
- White Blood Cells WBC (Day 35, dose group 3): 8330 µL⁻¹
- Others Het/Poly (Day 35, dose group 20): 31.00%
- Red Blood Cells HCT (Day 35, dose group 20): 28.67%
- White Blood Cells BASO (Day 35, dose group 20): 350.00 X/uL
- White Blood Cells EOS (Day 35, dose group 20): 0.00 X/uL
- White Blood Cells LYMP + MONO (Day 35, dose group 20): 5230.00 X/uL
- White Blood Cells NEUT (Day 35, dose group 20): 2420.00 X/uL
- White Blood Cells WBC (Day 35, dose group 20): 8000 µL⁻¹
- Others Het/Poly (Day 42, dose group 1): 50.00%
- Red Blood Cells HCT (Day 42, dose group 1): 27.67%
- White Blood Cells BASO (Day 42, dose group 1): 353.33 X/uL
- White Blood Cells EOS (Day 42, dose group 1): 106.67 X/uL
- White Blood Cells LYMP + MONO (Day 42, dose group 1): 3913.33 X/uL
- White Blood Cells NEUT (Day 42, dose group 1): 4626.67 X/uL
- White Blood Cells WBC (Day 42, dose group 1): 9000 µL⁻¹
- Others Het/Poly (Day 42, dose group 3): 34.33%
- Red Blood Cells HCT (Day 42, dose group 3): 27.50%
- White Blood Cells BASO (Day 42, dose group 3): 710.00 X/uL
- White Blood Cells EOS (Day 42, dose group 3): 0.00 X/uL
- White Blood Cells LYMP + MONO (Day 42, dose group 3): 4816.67 X/uL
- White Blood Cells NEUT (Day 42, dose group 3): 2806.67 X/uL
- White Blood Cells WBC (Day 42, dose group 3): 8330 µL⁻¹
- Others Het/Poly (Day 42, dose group 20): 43.00%
- Red Blood Cells HCT (Day 42, dose group 20): 34.67%
- White Blood Cells BASO (Day 42, dose group 20): 360.00 X/uL
- White Blood Cells EOS (Day 42, dose group 20): 0.00 X/uL
- White Blood Cells LYMP + MONO (Day 42, dose group 20): 4960.00 X/uL
- White Blood Cells NEUT (Day 42, dose group 20): 4013.33 X/uL
- White Blood Cells WBC (Day 42, dose group 20): 9330 µL⁻¹
- Others Het/Poly (Day 49, dose group 1): 32.00%
- Red Blood Cells HCT (Day 49, dose group 1): 30.00%
- White Blood Cells BASO (Day 49, dose group 1): 370.00 X/uL
- White Blood Cells EOS (Day 49, dose group 1): 0.00 X/uL
- White Blood Cells LYMP + MONO (Day 49, dose group 1): 5266.67 X/uL
- White Blood Cells NEUT (Day 49, dose group 1): 2696.67 X/uL
- White Blood Cells WBC (Day 49, dose group 1): 8330 µL⁻¹
- Others Het/Poly (Day 49, dose group 3): 31.33%
- Red Blood Cells HCT (Day 49, dose group 3): 29.67%
- White Blood Cells BASO (Day 49, dose group 3): 263.33 X/uL
- White Blood Cells EOS (Day 49, dose group 3): 0.00 X/uL
- White Blood Cells LYMP + MONO (Day 49, dose group 3): 6606.67 X/uL
- White Blood Cells NEUT (Day 49, dose group 3): 3130.00 X/uL
- White Blood Cells WBC (Day 49, dose group 3): 10000 µL⁻¹
- Others Het/Poly (Day 49, dose group 20): 30.33%
- Red Blood Cells HCT (Day 49, dose group 20): 31.33%
- White Blood Cells BASO (Day 49, dose group 20): 236.67 X/uL
- White Blood Cells EOS (Day 49, dose group 20): 0.00 X/uL
- White Blood Cells LYMP + MONO (Day 49, dose group 20): 5846.67 X/uL
- White Blood Cells NEUT (Day 49, dose group 20): 2583.33 X/uL
- White Blood Cells WBC (Day 49, dose group 20): 8670 µL⁻¹
Substance: Candida utilis phosphoglucomannan [CUP]
